Assay results: PubChem BioAssay AID344 (DTP/NCI, 2004)
“And” between values parts separate entries of the source, which are not always exact repeats. Identical values can stand only once. Toxic doses and inconclusive results are not listed.

Test system: mice, LPC-1 plasma cell tumor ip, median survival T/C
Experiment: NCI In Vivo Anticancer Drug Screen. Data for tumor model Lieberman Plasma Cell No. 1 (LPC-1) (intraperitoneal) in unknown mice
Conditions: endpoint: median survival time, higher = longer survival
Method: The antitumor activity of compounds was measured in mice bearing transplantable tumors. Survival or tumor size were measured and the results are expressed as the measurement made in the treated group (T) divided by the measurement made in the vehicle treated control group (C). The tumor model used in this assay is Lieberman Plasma Cell No. 1 (LPC-1) (intraperitoneal) in unknown mice

Q: For COc1cc2c(c3c1c(=O)c1ccccc1n3C)C=CC(C)(C)O2, which T/C (dose: 9.38 mg/kg/injection, schedule: Q03HX024 (oral), vehicle: steriod suspending solution) is on record?
A: 118 % of control

Q: And the T/C (dose: 18.0 mg/kg/injection, schedule: Q01DX021 (sc), vehicle: other)?
A: 121 % of control

Q: And the T/C (dose: 18.0 mg/kg/injection, schedule: Q03HX008 (sc), vehicle: other)?
A: 166 % of control

Q: And the T/C (dose: 18.75 mg/kg/injection, schedule: Q03HX008 (ip), vehicle: steriod suspending solution)?
A: 103 % of control

Q: What about the T/C (dose: 18.75 mg/kg/injection, schedule: Q03HX024 (oral), vehicle: steriod suspending solution) of the same molecule?
A: 118 % of control

Q: What about the T/C (dose: 23.0 mg/kg/injection, schedule: Q01DX028 (sc), vehicle: other) of the same molecule?
A: 154 % of control

Q: What about the T/C (dose: 27.0 mg/kg/injection, schedule: Q03HX008 (sc), vehicle: other) of the same molecule?
A: 280 % of control

Q: What about the T/C (dose: 27.0 mg/kg/injection, schedule: Q03HX024 (sc), vehicle: other) of the same molecule?
A: 178 % of control

Q: What about the T/C (dose: 37.5 mg/kg/injection, schedule: Q01DX028 (oral), vehicle: other) of the same molecule?
A: 105 % of control

Q: What about the T/C (dose: 37.5 mg/kg/injection, schedule: Q03HX008 (oral), vehicle: steriod suspending solution) of the same molecule?
A: 118 % of control

Q: What about the T/C (dose: 37.5 mg/kg/injection, schedule: Q03HX024 (oral), vehicle: steriod suspending solution) of the same molecule?
A: 109 % of control

Q: And the T/C (dose: 40.0 mg/kg/injection, schedule: Q01DX021 (sc), vehicle: other)?
A: 164 % of control

Q: What about the T/C (dose: 40.0 mg/kg/injection, schedule: Q03HX008 (sc), vehicle: other) of the same molecule?
A: 180 % of control

Q: And the T/C (dose: 40.0 mg/kg/injection, schedule: Q03HX024 (sc), vehicle: other)?
A: 204 % of control

Q: What about the T/C (dose: 60.0 mg/kg/injection, schedule: Q01DX021 (sc), vehicle: other) of the same molecule?
A: 173 % of control

Q: What about the T/C (dose: 60.0 mg/kg/injection, schedule: Q04DX003 (sc), vehicle: other) of the same molecule?
A: 152 % of control

Q: What about the T/C (dose: 70.0 mg/kg/injection, schedule: Q03HX024 (sc), vehicle: steriod suspending solution) of the same molecule?
A: 112 % of control

Q: What about the T/C (dose: 75.0 mg/kg/injection, schedule: Q01DX001 (ip), vehicle: steriod suspending solution) of the same molecule?
A: 112 % of control

Q: And the T/C (dose: 75.0 mg/kg/injection, schedule: Q01DX001 (oral), vehicle: steriod suspending solution)?
A: 96 % of control

Q: What about the T/C (dose: 75.0 mg/kg/injection, schedule: Q01DX028 (oral), vehicle: other) of the same molecule?
A: 108 % of control

Q: What about the T/C (dose: 75.0 mg/kg/injection, schedule: Q03HX008 (oral), vehicle: steriod suspending solution) of the same molecule?
A: 87 % of control

Q: And the T/C (dose: 75.0 mg/kg/injection, schedule: Q03HX024 (oral), vehicle: steriod suspending solution)?
A: 150 % of control

Q: And the T/C (dose: 90.0 mg/kg/injection, schedule: Q01DX005 (sc), vehicle: other)?
A: 150 % of control

Q: What about the T/C (dose: 99.0 mg/kg/injection, schedule: Q01DX020 (oral), vehicle: saline) of the same molecule?
A: 120 % of control

Q: And the T/C (dose: 100.0 mg/kg/injection, schedule: Q01DX001 (sc), vehicle: steriod suspending solution)?
A: 100 % of control

Q: What about the T/C (dose: 142.0 mg/kg/injection, schedule: Q01DX001 (sc), vehicle: steriod suspending solution) of the same molecule?
A: 104 % of control

Q: What about the T/C (dose: 143.0 mg/kg/injection, schedule: Q03HX008 (sc), vehicle: steriod suspending solution) of the same molecule?
A: 153 % of control

Q: What about the T/C (dose: 143.0 mg/kg/injection, schedule: Q03HX024 (sc), vehicle: steriod suspending solution) of the same molecule?
A: 156 % of control

Q: And the T/C (dose: 145.0 mg/kg/injection, schedule: Q03HX024 (sc), vehicle: other)?
A: 103 % of control

Q: And the T/C (dose: 150.0 mg/kg/injection, schedule: Q01DX001 (ip), vehicle: steriod suspending solution)?
A: 100 % of control

Q: And the T/C (dose: 150.0 mg/kg/injection, schedule: Q01DX001 (oral), vehicle: steriod suspending solution)?
A: 106 % of control and 112 % of control

Q: And the T/C (dose: 150.0 mg/kg/injection, schedule: Q01DX028 (oral), vehicle: other)?
A: 100 % of control

Q: And the T/C (dose: 180.0 mg/kg/injection, schedule: Q01DX001 (sc), vehicle: other)?
A: 154 % of control

Q: What about the T/C (dose: 180.0 mg/kg/injection, schedule: Q01DX005 (sc), vehicle: other) of the same molecule?
A: 171 % of control

Q: And the T/C (dose: 180.0 mg/kg/injection, schedule: Q04DX003 (sc), vehicle: other)?
A: 173 % of control

Q: And the T/C (dose: 204.0 mg/kg/injection, schedule: Q03HX008 (sc), vehicle: steriod suspending solution)?
A: 159 % of control

Q: What about the T/C (dose: 214.0 mg/kg/injection, schedule: Q01DX001 (sc), vehicle: steriod suspending solution) of the same molecule?
A: 102 % of control

Q: What about the T/C (dose: 214.0 mg/kg/injection, schedule: Q03HX024 (sc), vehicle: other) of the same molecule?
A: 112 % of control and 121 % of control

Q: What about the T/C (dose: 300.0 mg/kg/injection, schedule: Q01DX001 (oral), vehicle: steriod suspending solution) of the same molecule?
A: 106 % of control

Q: What about the T/C (dose: 300.0 mg/kg/injection, schedule: Q## X008 (oral), vehicle: other) of the same molecule?
A: 161 % of control

Q: And the T/C (dose: 320.0 mg/kg/injection, schedule: Q01DX001 (sc), vehicle: steriod suspending solution)?
A: 104 % of control

Q: And the T/C (dose: 320.0 mg/kg/injection, schedule: Q03HX024 (sc), vehicle: other)?
A: 118 % of control

Q: What about the T/C (dose: 360.0 mg/kg/injection, schedule: Q01DX001 (sc), vehicle: other) of the same molecule?
A: 152 % of control

Q: And the T/C (dose: 480.0 mg/kg/injection, schedule: Q01DX001 (sc), vehicle: steriod suspending solution)?
A: 118 % of control

Q: And the T/C (dose: 528.0 mg/kg/injection, schedule: Q## X008 (sc), vehicle: steriod suspending solution)?
A: 116 % of control

Q: And the T/C (dose: 600.0 mg/kg/injection, schedule: Q01DX001 (ip), vehicle: steriod suspending solution)?
A: 112 % of control

Q: And the T/C (dose: 600.0 mg/kg/injection, schedule: Q01DX001 (oral), vehicle: steriod suspending solution)?
A: 120 % of control

Q: And the T/C (dose: 600.0 mg/kg/injection, schedule: Q## X024 (oral), vehicle: steriod suspending solution)?
A: 86 % of control

Q: And the T/C (dose: 800.0 mg/kg/injection, schedule: Q## X024 (sc), vehicle: steriod suspending solution)?
A: 166 % of control

Q: And the T/C (dose: 1136.0 mg/kg/injection, schedule: Q## X008 (sc), vehicle: steriod suspending solution)?
A: 108 % of control

Q: What about the T/C (dose: 1712.0 mg/kg/injection, schedule: Q## X024 (sc), vehicle: steriod suspending solution) of the same molecule?
A: 160 % of control

Q: And the T/C (dose: 2560.0 mg/kg/injection, schedule: Q## X008 (sc), vehicle: steriod suspending solution)?
A: 172 % of control

Q: What about the T/C (dose: 2560.0 mg/kg/injection, schedule: Q## X024 (sc), vehicle: steriod suspending solution) of the same molecule?
A: 118 % of control
